Experimental data taken from patent US7608282B2, “Transdermal granisetron” (Strakan International Limited, priority 2003, dated 2009).
Structures can show the parent of a compound that is named as a salt.

What was measured:
[1] = acrylic adhesives, WO98/53815; cited from earlier work
[2] = cited from earlier work
[3] = single administration of a 1 mg tablet, human volunteers; cited from earlier work
[4] = tested on: delayed emesis in cancer patients; details: continual IV infusion at 40 μg/h; cited from earlier work
[5] = tested on: post-operative nausea and vomiting; details: doses as low as 0.1 mg; cited from earlier work
[6] = tested on: delayed emesis in cancer patients; assay: continual IV infusion of granisetron in cancer patients, delayed emesis (Kalaycio et al.); format: in vivo, human; details: continual IV infusion at 40 μg/h
Excerpt: The minimum therapeutic plasma level required for efficacious use of any drug is ideally assessed by titrated, prolonged IV infusion studies coupled to clinical response in patients.

[7] = continual twice daily dosing of 1 mg in cancer patients

SMILES	stability in adhesives containing nucleophilic (hydroxyl) moieties [1]	average peak plasma levels [2, 7] [ng/mL]	clearance [2, 7] [mL/min/kg]	Tmax ([2]; oral granisetron, population not given)	Cmax [3] [ng/mL]	effect on delayed emesis [4]	prevention of post-operative nausea and vomiting [5]	plasma level maintained [6]
CN1[C@@H]2CC[C@H]1C[C@@H](OC(=O)c1c[nH]c3ccccc13)C2 [tropisetron]	unstable							
CN1C2CCCC1CC(NC(=O)c1nn(C)c3ccccc13)C2 (stereo not drawn) [granisetron, N-endo-9-methyl-9-azabicyclo[3.3.1]non-3-yl-1-methylindazole-3-carboxamide hydrochloride]		6	8.67	approximately 2 hours	3.6	alleviate delayed emesis	effective	approximately 1.5 ng/ml
